# Read-outs that look alike come from different tables or passages of the source.
# Assays:
# dopamine transporter = biological target: T1, dopamine transporter (Rattus norvegicus, UniProt P23977); assay: In vitro binding: displacement of [3H]WIN 35,428 in rat striatal homogenate; settings: displacement of [3H]WIN 35,428, rat striatal homogenate; read-out: calculated binding constant with dopamine transporter
# T1 construct: in a rat striatal homogenate preparation; from tissue; host or cells: rat striatum (homogenate)
# T1 sequence (P23977 whole entry): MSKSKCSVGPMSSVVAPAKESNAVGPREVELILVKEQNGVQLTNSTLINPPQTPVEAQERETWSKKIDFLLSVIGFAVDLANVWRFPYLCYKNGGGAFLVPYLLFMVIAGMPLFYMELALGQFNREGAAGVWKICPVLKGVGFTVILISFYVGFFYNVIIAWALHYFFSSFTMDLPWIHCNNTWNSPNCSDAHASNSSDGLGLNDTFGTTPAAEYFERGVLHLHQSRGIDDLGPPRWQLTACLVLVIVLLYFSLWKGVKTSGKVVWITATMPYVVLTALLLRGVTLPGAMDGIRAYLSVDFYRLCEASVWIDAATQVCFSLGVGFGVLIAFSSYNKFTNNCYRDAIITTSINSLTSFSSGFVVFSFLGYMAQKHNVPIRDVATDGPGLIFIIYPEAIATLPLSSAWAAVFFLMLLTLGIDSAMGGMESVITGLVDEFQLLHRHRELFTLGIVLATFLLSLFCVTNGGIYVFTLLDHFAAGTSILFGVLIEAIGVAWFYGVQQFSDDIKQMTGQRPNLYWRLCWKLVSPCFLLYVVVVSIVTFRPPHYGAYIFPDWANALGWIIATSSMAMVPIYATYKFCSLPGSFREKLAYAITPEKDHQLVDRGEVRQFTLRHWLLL
# Procedure: (§1) In vivo distribution of a compound of the invention, [^18 F]-2β-carbo-2'-fluoroisopropoxy-3β-(4-iodophenyl)tropane (FIPIT) 8 (X=4-iodophenyl; Y=1'fluoro-isopropoxy) was measured, as well as brain PET imaging to determine suitability of the compound as a label. Also, in vitro binding studies were conducted, measuring the ability of FIPIT to displace [^3 H]WIN 35,428 (III) in a rat striatal homogenate preparation. These studies provided a calculated binding constant for FIPIT 8 with dopamine transporter of 1.13 nM. […] Region of interest measurements determined striatal to cerebellum ratios to be 3.0 at 190 min post administration. In the in vivo distribution studies, the distribution of radioactivity was expressed as percent dose per gram in tissues of unfasted male Sprague Dawley rats at 2 min, 30 min, 60 min and 120 min after intravenous administration of [^18 F] FIPIT 8. The results are shown in Table I. The initial level of accumulation of radioactivity in the striatum, a region rich in dopamine transporters, after injection of [^18 F] FIPIT 8 was high, 0.84% of injected dose/gram at 2 min, and decreased slowly to 0.50% of injected dose/gram at 120 min. […] However, the amount of radioactivity in the cerebellum and cortex at 120 min decreased to only 0.14% dose/gram and 0.26% dose/gram respectively resulting in a striatum to cerebellum ratio of 3.71 and a striatum to cortex ratio of 2.0.
# [1] = Brain PET imaging with [18F]-FIPIT in a rhesus monkey; type: in vivo
# Procedure: as §1
# [2] = In vivo tissue distribution of radioactivity after intravenous administration; set-up: species or system Sprague Dawley rats; settings: rat, i.v.; for tissue uptake at 2 min / tissue uptake at 0.5 h / tissue uptake at 1 h / tissue uptake at 2 h: iv
# Procedure: as §1
smiles,measurement,setting,value
CC(CF)OC(=O)[C@H]1[C@@H](c2ccc(I)cc2)C[C@@H]2CC[C@H]1N2C (stereo partly drawn) [FIPIT 8],Ki,dopamine transporter,1.13 nM
"CC(C[18F])OC(=O)[C@H]1[C@@H](c2ccc(I)cc2)C[C@@H]2CC[C@H]1N2C (stereo partly drawn) [[^18 F] FIPIT 8, Fluorine-18 labeled2β-carbo-1'-fluoroisopropoxy-3β-(4-iodophenyl)tropane]",brain region of highest uptake (basal ganglia/striatum),[1],region of highest uptake in the brain
same,retention in basal ganglia (striatum),[1]; 190 min following injection,prolonged retention with clear visualization at 190 min
same,striatal to cerebellum ratio (region of interest measurements),[1]; 190 min post administration,3.0
same,tissue uptake at 2 min,"[2]; blood, 2 min, read-out: Blood, Mean % Injected Dose/Gram",0.14 %ID/g
same,tissue uptake at 0.5 h,"[2]; blood, 30 min, read-out: Blood, Mean % Injected Dose/Gram",0.03 %ID/g
same,tissue uptake at 1 h,"[2]; blood, 60 min, read-out: Blood, Mean % Injected Dose/Gram",0.03 %ID/g
same,tissue uptake at 2 h,"[2]; blood, 120 min, read-out: Blood, Mean % Injected Dose/Gram",0.04 %ID/g
same,tissue uptake at 2 min,"[2]; bone, 2 min, read-out: Bone, Mean % Injected Dose/Gram",0.28 %ID/g
same,tissue uptake at 0.5 h,"[2]; bone, 30 min, read-out: Bone, Mean % Injected Dose/Gram",0.21 %ID/g
same,tissue uptake at 1 h,"[2]; bone, 60 min, read-out: Bone, Mean % Injected Dose/Gram",0.17 %ID/g
same,tissue uptake at 2 h,"[2]; bone, 120 min, read-out: Bone, Mean % Injected Dose/Gram",0.25 %ID/g
same,tissue uptake at 2 min,"[2]; brain, 2 min, read-out: Brain (B), Mean % Injected Dose/Gram",0.83 %ID/g
same,tissue uptake at 0.5 h,"[2]; brain, 30 min, read-out: Brain (B), Mean % Injected Dose/Gram",0.53 %ID/g
same,tissue uptake at 1 h,"[2]; brain, 60 min, read-out: Brain (B), Mean % Injected Dose/Gram",0.31 %ID/g
same,tissue uptake at 2 h,"[2]; brain, 120 min, read-out: Brain (B), Mean % Injected Dose/Gram",0.28 %ID/g
same,tissue uptake at 2 min,"[2]; cerebellum, 2 min, read-out: Cerebell (C), Mean % Injected Dose/Gram",0.76 %ID/g
same,tissue uptake at 0.5 h,"[2]; cerebellum, 30 min, read-out: Cerebell (C), Mean % Injected Dose/Gram",0.3 %ID/g
same,tissue uptake at 1 h,"[2]; cerebellum, 60 min, read-out: Cerebell (C), Mean % Injected Dose/Gram",0.16 %ID/g
same,tissue uptake at 2 h,"[2]; cerebellum, 120 min, read-out: Cerebell (C), Mean % Injected Dose/Gram",0.14 %ID/g
same,tissue uptake at 2 min,"[2]; cortex, 2 min, read-out: Cortex (Cx), Mean % Injected Dose/Gram",0.98 %ID/g
same,tissue uptake at 0.5 h,"[2]; cortex, 30 min, read-out: Cortex (Cx), Mean % Injected Dose/Gram",0.53 %ID/g
same,tissue uptake at 1 h,"[2]; cortex, 60 min, read-out: Cortex (Cx), Mean % Injected Dose/Gram",0.28 %ID/g
same,tissue uptake at 2 h,"[2]; cortex, 120 min, read-out: Cortex (Cx), Mean % Injected Dose/Gram",0.26 %ID/g
same,tissue uptake at 2 min,"[2]; heart, 2 min, read-out: Heart, Mean % Injected Dose/Gram",1.7 %ID/g
same,tissue uptake at 0.5 h,"[2]; heart, 30 min, read-out: Heart, Mean % Injected Dose/Gram",0.14 %ID/g
same,tissue uptake at 1 h,"[2]; heart, 60 min, read-out: Heart, Mean % Injected Dose/Gram",0.1 %ID/g
same,tissue uptake at 2 h,"[2]; heart, 120 min, read-out: Heart, Mean % Injected Dose/Gram",0.12 %ID/g
same,tissue uptake at 2 min,"[2]; kidney, 2 min, read-out: Kidney, Mean % Injected Dose/Gram",2.61 %ID/g
same,tissue uptake at 0.5 h,"[2]; kidney, 30 min, read-out: Kidney, Mean % Injected Dose/Gram",0.85 %ID/g
same,tissue uptake at 1 h,"[2]; kidney, 60 min, read-out: Kidney, Mean % Injected Dose/Gram",0.44 %ID/g
same,tissue uptake at 2 h,"[2]; kidney, 120 min, read-out: Kidney, Mean % Injected Dose/Gram",0.3 %ID/g
same,tissue uptake at 2 min,"[2]; liver, 2 min, read-out: Liver, Mean % Injected Dose/Gram",1.5 %ID/g
same,tissue uptake at 0.5 h,"[2]; liver, 30 min, read-out: Liver, Mean % Injected Dose/Gram",3.89 %ID/g
same,tissue uptake at 1 h,"[2]; liver, 60 min, read-out: Liver, Mean % Injected Dose/Gram",5.2 %ID/g
same,tissue uptake at 2 h,"[2]; liver, 120 min, read-out: Liver, Mean % Injected Dose/Gram",4.46 %ID/g
same,tissue uptake at 2 min,"[2]; lung, 2 min, read-out: Lung, Mean % Injected Dose/Gram",6.21 %ID/g
same,tissue uptake at 0.5 h,"[2]; lung, 30 min, read-out: Lung, Mean % Injected Dose/Gram",0.61 %ID/g
same,tissue uptake at 1 h,"[2]; lung, 60 min, read-out: Lung, Mean % Injected Dose/Gram",0.4 %ID/g
same,tissue uptake at 2 h,"[2]; lung, 120 min, read-out: Lung, Mean % Injected Dose/Gram",0.46 %ID/g
same,tissue uptake at 2 min,"[2]; muscle, 2 min, read-out: Muscle, Mean % Injected Dose/Gram",0.12 %ID/g
same,tissue uptake at 0.5 h,"[2]; muscle, 30 min, read-out: Muscle, Mean % Injected Dose/Gram",0.13 %ID/g
same,tissue uptake at 1 h,"[2]; muscle, 60 min, read-out: Muscle, Mean % Injected Dose/Gram",0.04 %ID/g
same,tissue uptake at 2 h,"[2]; muscle, 120 min, read-out: Muscle, Mean % Injected Dose/Gram",0.08 %ID/g
same,washout from brain regions other than striatum,[2],rapid washout in all other brain regions
same,"Bone, Mean % Injected Dose/Gram",[2]; 2 min,0.28 % Injected Dose/Gram
same,"Cerebell (C), Mean % Injected Dose/Gram",[2]; 2 min,0.76 % Injected Dose/Gram
same,"Cortex (Cx), Mean % Injected Dose/Gram",[2]; 2 min,0.98 % Injected Dose/Gram
same,St/C (striatum to cerebellum ratio),[2]; 2 min,1.12
same,St/Cx (striatum to cortex ratio),[2]; 2 min,0.86
same,"Striatum (St), Mean % Injected Dose/Gram",[2]; 2 min,0.84 % Injected Dose/Gram
same,in vivo defluorination (from bone radioactivity),[2]; 2 min to 120 min,stability of the 2β-fluoroisopropyl group to significant in vivo defluorination
same,St/C (striatum to cerebellum ratio),[2]; 30 min,2.42
same,St/Cx (striatum to cortex ratio),[2]; 30 min,1.38
same,St/C (striatum to cerebellum ratio),[2]; 60 min,3.63
same,St/Cx (striatum to cortex ratio),[2]; 60 min,2.13
same,"Bone, Mean % Injected Dose/Gram",[2]; 120 min,0.25 % Injected Dose/Gram
same,"Cerebell (C), Mean % Injected Dose/Gram",[2]; 120 min,0.14 % Injected Dose/Gram
same,"Cortex (Cx), Mean % Injected Dose/Gram",[2]; 120 min,0.26 % Injected Dose/Gram
same,St/C (striatum to cerebellum ratio),[2]; 120 min,3.71
same,St/Cx (striatum to cortex ratio),[2]; 120 min,2.0
same,"Striatum (St), Mean % Injected Dose/Gram",[2]; 120 min,0.50 % Injected Dose/Gram
same,St/Cx (striatum to cortex ratio),"[2]; 120 min, listed as [^18 F] FIPIT (8)",2.00
same,tissue uptake at 2 min,"[2]; spleen, 2 min, read-out: Spleen, Mean % Injected Dose/Gram",1.58 %ID/g
same,tissue uptake at 0.5 h,"[2]; spleen, 30 min, read-out: Spleen, Mean % Injected Dose/Gram",0.64 %ID/g
same,tissue uptake at 1 h,"[2]; spleen, 60 min, read-out: Spleen, Mean % Injected Dose/Gram",0.4 %ID/g
same,tissue uptake at 2 h,"[2]; spleen, 120 min, read-out: Spleen, Mean % Injected Dose/Gram",0.38 %ID/g
same,tissue uptake at 2 min,"[2]; striatum, 2 min, read-out: Striatum (St), Mean % Injected Dose/Gram",0.84 %ID/g
same,tissue uptake at 0.5 h,"[2]; striatum, 30 min, read-out: Striatum (St), Mean % Injected Dose/Gram",0.73 %ID/g
same,tissue uptake at 1 h,"[2]; striatum, 60 min, read-out: Striatum (St), Mean % Injected Dose/Gram",0.58 %ID/g
same,tissue uptake at 2 h,"[2]; striatum, 120 min, read-out: Striatum (St), Mean % Injected Dose/Gram",0.5 %ID/g
same,tissue uptake at 2 min,"[2]; testis, 2 min, read-out: Testis, Mean % Injected Dose/Gram",0.14 %ID/g
same,tissue uptake at 0.5 h,"[2]; testis, 30 min, read-out: Testis, Mean % Injected Dose/Gram",0.68 %ID/g
same,tissue uptake at 1 h,"[2]; testis, 60 min, read-out: Testis, Mean % Injected Dose/Gram",0.17 %ID/g
same,tissue uptake at 2 h,"[2]; testis, 120 min, read-out: Testis, Mean % Injected Dose/Gram",0.19 %ID/g

# From US5888475A, “Labeled cocaine analogs” (Emory University, priority 1997, dated 1999)
